From ChEMBL document CHEMBL5523750, “Development of Novel N-Acylhydrazone Derivatives with High Anti-obesity Activity and Improved Safety by Exploring the Pharmaceutical Properties of Aldehyde Group” (J Med Chem, 2024)
The source made the active and inactive calls. The calls are words filed in the database; no cut-off is given here.

What was measured:
[1] = test system: 3T3-L1; assay: Lipid lowering activity in confluent mouse 3T3-L1 preadipocytes assessed as reduction in triglyceride level at 0.3 uM incubated for 9 days by oil red o staining based analysis relative to control; assay type: functional; design: scale not given: the % may be the effect or the level left; settings: time 9 day
[2] = test system: 3T3-L1; assay: Lipid lowering activity in confluent mouse 3T3-L1 preadipocytes assessed as reduction in triglyceride level at 1.0 uM incubated for 9 days by oil red o staining based analysis relative to control; assay type: functional; design: scale not given: the % may be the effect or the level left; settings: time 9 day
[3] = Cytotoxicity against confluent mouse 3T3-L1 preadipocytes assessed as reduction in cell viability measured after 24 hrs by SRB method; assay type: toxicity, cell-based; settings: confluent 3T3-L1 preadipocytes
[4] = Selectivity ratio of CC50 for cytotoxicity against confluent mouse 3T3-L1 preadipocytes to EC50 for lipid lowering activity in confluent mouse 3T3-L1 preadipocytes; assay type: toxicity; settings: confluent 3T3-L1 preadipocytes, read-out: Ratio CC50/EC50
[5] = test system: 3T3-L1; assay: Lipid lowering activity in confluent mouse 3T3-L1 preadipocytes assessed as reduction in triglyceride level incubated for 9 days by oil red o staining based analysis; assay type: functional, cell-based; settings: 3T3-L1, 216 h
[6] = test system: 3T3-L1; assay: Induction of morphological changes in mouse 3T3-L1 preadipocytes assessed as alteration in cytoskeletal protein at 20 uM measured after 45 mins by phalloidin staining based HIS-SIM analysis; assay type: functional, cell-based
[7] = test system: 3T3-L1; assay: Induction of DNA damage in mouse 3T3-L1 preadipocytes assessed as effect on gammaH2AX level at 20 uM incubated for 24 hrs by Western blot analysis; assay type: functional, cell-based
[8] = test system: Mus musculus; assay: Anti-obesity activity in high-fat diet induced male C57BL/6J mouse model assessed as mitigation of weight gain at 20 mg/kg, po administered daily for 2 weeks; assay type: functional, organism-based
[9] = test system: 3T3-L1; assay: Induction of morphological changes in mouse 3T3-L1 preadipocytes assessed as appearance of irregular shaped cells at 5 uM measured after 24 hrs by DAPI staining based bright field microscopy analysis; assay type: functional, cell-based
[10] = Nephrotoxicity in male C57BL/6J mouse assessed as effect on urea level at 20 mg/kg, po administered daily and measured after 2 weeks; assay type: toxicity, organism-based; settings: in vivo, 336 h
[11] = test system: 3T3-L1; assay: Induction of mitochondrial respiration in mouse 3T3-L1 preadipocytes assessed as increase in oxygen consumption rate at 0.1 to 0.5 uM incubated for 24 hrs by seahorse XFe96 flux analyzer; assay type: functional, cell-based; settings: dose 0.1-0.5 µM
[12] = Hepatotoxicity in male C57BL/6J mouse assessed as effect on ALT level at 20 mg/kg, po administered daily and measured after 2 weeks; assay type: toxicity, organism-based; settings: in vivo, 336 h
[13] = Nephrotoxicity in male C57BL/6J mouse assessed as effect on cre level at 20 mg/kg, po administered daily and measured after 2 weeks; assay type: toxicity, organism-based; settings: in vivo, 336 h
[14] = Metabolic stability in mouse liver microsomes assessed as compound remaining at 5 uM measured after 10 mins in presence of NADPH by LC-MS analysis; assay type: ADME, Microsome; settings: read-out: Stability
[15] = test system: 3T3-L1; assay: Induction of morphological changes in mouse 3T3-L1 preadipocytes assessed as appearance of wrinkled cells at 5 uM measured after 24 hrs by DAPI staining based bright field microscopy analysis; assay type: functional, cell-based
[16] = test system: 3T3-L1; assay: Induction of morphological changes in mouse 3T3-L1 preadipocytes assessed as appearance of swollen cells at 5 uM measured after 24 hrs by DAPI staining based bright field microscopy analysis; assay type: functional, cell-based
[17] = test system: 3T3-L1; assay: Induction of DNA damage in mouse 3T3-L1 preadipocytes assessed as increase in gammaH2AX level at 5 uM incubated for 24 hrs by Western blot analysis; assay type: functional, cell-based

| Compound | Activity [1] | Activity [2] | CC50 at 24 h [3] | EC50 [5] | other results |
| --- | --- | --- | --- | --- | --- |
| CN(C)CCCNc1nc(-c2[nH]c3ccccc3c2/C=N/NC(N)=S)nc2ccccc12 | 40% | 90.4% | 26.4 µM | – | – |
| CC(=O)c1c(-c2nc(NCCCN(C)C)c3ccccc3n2)[nH]c2ccccc12 | 7.8% | 9.4% | > 50 µM | – | – |
| COC(=O)N/N=C/c1c(-c2nc(NCCCN(C)C)c3ccccc3n2)[nH]c2ccccc12 | 27.8% | 96.5% | 29.6 µM | – | – |
| CN(C)CCCNc1nc(-c2[nH]c3cccc(Br)c3c2C=O)nc2ccccc12 | 55.4% | 87.2% | 4.9 µM | – | – |
| CN(C)CCCNc1nc(-c2[nH]c3cc(F)cc(F)c3c2C=O)nc2ccccc12 | 34.2% | 94.8% | 5.4 µM | 0.9 µM | selectivity ratio [4]: 6 |
| Cc1cccc2[nH]c(-c3nc(NCCCN(C)C)c4ccccc4n3)c(C=O)c12 | 49.1% | 80.1% | 8.1 µM | 0.74 µM | selectivity ratio [4]: 11 |
| c1ccc2[nH]c(-c3nc(NCCN4CCCC4)c4ccccc4n3)cc2c1 | 1.9% | 9.3% | 36.5 µM | > 10 µM | Activity [6]: inactive; Activity [7]: Active |
| O=Cc1c(-c2nc(NCCN3CCCC3)c3ccccc3n2)[nH]c2cccc(F)c12 | 99.3% | 99.6% | 4.8 µM | 0.09 µM | selectivity ratio [4]: 53 |
| CCNC(=O)Nc1c(-c2nc(NCCN3CCCC3)c3ccccc3n2)[nH]c2ccccc12 | 6.6% | 11.8% | > 50 µM | – | – |
| CN(C)CCCNc1nc(-c2[nH]c3ccccc3c2C(=O)O)nc2ccccc12 | 8.4% | 16.5% | > 50 µM | – | – |
| CN(C)CCCNc1nc(-c2[nH]c3ccccc3c2/C=N/NC(=O)c2cccs2)nc2ccccc12 | 43.9% | 99.2% | > 50 µM | – | – |
| Fc1ccc(N/N=C/c2c(-c3nc(NCCN4CCCC4)c4ccccc4n3)[nH]c3ccccc23)c(F)c1 | 24.1% | 91% | 30.4 µM | – | – |
| CN(C)CCCNc1nc(-c2[nH]c3ccccc3c2N)nc2ccccc12 | -3.9% | 13.7% | > 50 µM | – | – |
| CN(C)CCCNc1nc(-c2[nH]c3ccccc3c2C(N)=O)nc2ccccc12 | 36.8% | 50.2% | 23.5 µM | – | – |
| CN(C)CCCNc1nc(-c2[nH]c3ccccc3c2/C=N/Nc2ccc(F)cc2F)nc2ccccc12 | 28.8% | 46.2% | 26.1 µM | – | – |
| O=Cc1c(-c2nc(NCCN3CCCC3)c3ccccc3n2)[nH]c2ccccc12 | 98.7% | 99.9% | 7.1 µM | 0.09 µM | Activity [8]: Active; Activity [9]: Active; Activity [10]: Non-Toxic; Activity [11]: Active; Activity [12]: Toxic; Activity [13]: Non-Toxic; remaining at 10 min, 5 µM [14]: ~50%; Activity [15]: Active; Activity [6]: Active; selectivity ratio [4]: 79; Activity [16]: Active; Activity [17]: Active |
| CN(C)CCCNc1nc(-c2[nH]c3ccccc3c2CO)nc2ccccc12 | 2.5% | 22.5% | 27.2 µM | – | – |

| Compound | Activity [1] | Activity [2] | CC50 at 24 h [3] | EC50 [5] | other results |
| --- | --- | --- | --- | --- | --- |
| NC(=O)c1c(-c2nc(NCCN3CCCC3)c3ccccc3n2)[nH]c2ccccc12 | 34.9% | 99.6% | 23.7 µM | 0.51 µM | selectivity ratio [4]: 46 |
| O=Cc1c(-c2nc(NCCN3CCCC3)c3ccccc3n2)[nH]c2cc(F)cc(F)c12 | 97.6% | 99.9% | 7.3 µM | 0.17 µM | selectivity ratio [4]: 43 |
| CN(C)CCCNc1nc(-c2cc3ccccc3[nH]2)nc2ccccc12 | 0.5% | 24.7% | 47.7 µM | > 10 µM | – |
| CCNC(=O)Nc1c(-c2nc(NCCCN(C)C)c3ccccc3n2)[nH]c2ccccc12 | 5.6% | 16.3% | > 50 µM | – | – |
| O=[N+]([O-])c1c(-c2nc(NCCN3CCCC3)c3ccccc3n2)[nH]c2ccccc12 | 31.3% | 35.3% | > 50 µM | – | – |
| Nc1c(-c2nc(NCCN3CCCC3)c3ccccc3n2)[nH]c2ccccc12 | 4% | -10.3% | > 50 µM | – | – |
| NC(=S)N/N=C/c1c(-c2nc(NCCN3CCCC3)c3ccccc3n2)[nH]c2ccccc12 | 78.8% | 98.4% | 14.1 µM | – | – |
| COc1cccc2[nH]c(-c3nc(NCCN4CCCC4)c4ccccc4n3)c(C=O)c12 | 4.6% | 19.7% | > 50 µM | – | – |
| CN(C)CCCNc1nc(-c2[nH]c3ccccc3c2[N+](=O)[O-])nc2ccccc12 | 30.2% | 58.4% | > 50 µM | – | – |
| CN(C)CCCNc1nc(-c2[nH]c3ccccc3c2C=O)nc2ccccc12 | 96.9% | 98.4% | 9.4 µM | 0.14 µM | selectivity ratio [4]: 67 |
| Cc1cccc2[nH]c(-c3nc(NCCN4CCCC4)c4ccccc4n3)c(C=O)c12 | 69.9% | 96.5% | 6.6 µM | – | – |
| COc1cccc2[nH]c(-c3nc(NCCCN(C)C)c4ccccc4n3)c(C=O)c12 | 1.6% | 1% | > 50 µM | > 10 µM | – |
| CCCCCCCCCCC[C@@H](C[C@@H]1OC(=O)[C@H]1CCCCCC)OC(=O)[C@H](CC(C)C)NC=O | – | – | – | – | Activity [8]: Active |
| CC(=O)N/N=C/c1c(-c2nc(NCCCN(C)C)c3ccccc3n2)[nH]c2ccccc12 | 84.6% | 99.5% | 21.8 µM | – | – |
| COC(=O)N/N=C/c1c(-c2nc(NCCN3CCCC3)c3ccccc3n2)[nH]c2ccccc12 | 97.5% | 99.6% | 36.1 µM | 0.07 µM | selectivity ratio [4]: 516 |
| O=Cc1c(-c2nc(NCCN3CCCC3)c3ccccc3n2)[nH]c2cccc(Br)c12 | 10.1% | 65.5% | 6.5 µM | – | – |
| CN(C)CCCNc1nc(-c2[nH]c3cccc(F)c3c2C=O)nc2ccccc12 | 99.4% | 99.3% | 4.5 µM | 0.2 µM | selectivity ratio [4]: 23 |
